{"source": "paper PMC12266748", "about": "“A Xanthine Derivative With Novel Heat Shock Protein 90‐Alpha Inhibitory and Senolytic Properties” (Aging Cell, 2025)", "key": {"p16-3MR mice": {"test_system": "p16-3MR mice", "experiment": "Pilot study in aged p16-3MR mice (safety, bioluminescence, ear biopsy markers, cytokines)", "type": "in vivo", "description": "(§1) Sections were prepared from organs and ear biopsies from snap‐frozen tissues and mounted on SuperFrost Plus slides (VWR). SA‐β‐gal staining was performed according to the manufacturer's instructions for the Sigma‐Aldrich‐QIA117 staining kit (Sigma‐Aldrich). Nuclei were counterstained with Nuclear Fast Red (Sigma‐Aldrich), and images were acquired using a Zeiss AxioCam HRc mounted on a Leitz Laborlux S light microscope. The percentage of senescent cells was determined with QuPath v. 0.3.2 (Bankhead et al. [2017]).\n(§2) All experiments were performed per the European Community Council Directives of 2010/63/UE. The pilot study (PS) investigated safety and potential senolytic efficacy, and the Extended study (ES) investigated functional changes, pathological phenotype, and the principal organ targeted by K5. Protocols were approved according to current Italian law (D.Lgs. n. 26/2014) by OPBA (animal care and health committee) of IRCCS INRCA and by the General Direction of Animal Health and Veterinary Drugs of the Italian Ministry of Health with authorization n°‐137/2021‐PR for PS and authorization n°‐370/2022‐PR for ES. In the PS of p16‐3MR mice (26 months), bioluminescence associated with p16‐expression was monitored before and after treatment, and the health of the mice was longitudinally studied. The ES used geriatric C57BL/6J mice (31 months). Clinical health and physical performance were analyzed before and after K5 treatment. Subsequently, the animals were euthanized, gross necropsies were performed, and organs were collected for further analysis. Detailed protocols are reported in the extended section.\n(§3) Blood samples were collected from the right retroorbital plexus. Glucose (GLUC), creatinine (CREA), aspartate aminotransferase (AST/GOT), and alanine aminotransferase (ALT/GPT) were determined in EDTA‐plasma by using an automated analyzer (Cobas Mira, Roche) according to the manufacturer's instructions. Cytokines were measured in EDTA‐plasma using the ProcartaPlex Mouse Cytokine & Chemokine Panel 1, 26plex (Thermofisher) and read in the Luminex 200 instrument (Bio‐Rad), following the producer's recommendation.\nTotal RNA was extracted from ear biopsies using the RNeasy kit (Qiagen) according to the manufacturer's instructions and quantified by NanoDrop. β‐actin, p‐21, and p‐53 gene expression levels were analyzed on a BioRad iQ5 optical RT‐PCR (BioRad).\nExperimental animals' bioluminescence imaging (BLI) was performed with an IVIS Spectrum system (PerkinElmer). Mice were intraperitoneally injected with Xenolight RediJect Coelenterazine h (PerkinElmer), and bioluminescent images were obtained with mice in the dorsal and ventral positions; the Living Image software quantified bioluminescence acquired by the CCD camera.\n. To explore the safety of K5 and its potential impact on the aging process, p16-3MR mice were longitudinally studied in this pilot experiment. They were monitored once a month until natural death using a non-invasive protocol designed to assess their clinical health and physical performance across various functional domains associated with frailty. Additionally, to provide an initial overview of K5 effects on senescent cells, non-invasive and exploratory analyses (senescence markers in ear biopsies, p16 expression measured by in vivo bioluminescence assay, and circulating cytokine profile) were performed before the start of the treatment (T0) and after 20 days following the end of K5 administration (T1).\nCirculating cytokines assay. Blood samples were collected from the right retroorbital plexus of anesthetized mice. Blood samples were deposited in serum separator gel tubes (Microvette CB300, Sarstedt) and centrifuged (1000 × g, 10 min) for serum separation. Concentrations of glucose (GLUC), creatinine (CREA), aspartate aminotransferase (AST/GOT), and alanine aminotransferase (ALT/GPT) were determined in EDTA-plasma by using an automated analyzer (Cobas Mira, Roche) according to the manufacturer's instructions. […]"}, "C57BL/6J mice": {"test_system": "C57BL/6J mice", "experiment": "Extended study in geriatric C57BL/6J mice (biochemistry, function, necropsy, cytokines, SA-β-gal in organs)", "type": "in vivo, mouse", "description": "as §1, §2, §3\nWe measured the clinical frailty index (CFI), Clinical Health Score (CHS), Physical Function Score (PFS), and Vitality Score (VS) in mice, as previously described (Marcozzi et al. [2023]). All frailty measurements were performed in a dedicated INRCA SPF animal facility area. The CFI score for each mouse was calculated as previously published (Whitehead et al. [2014]). The VS was obtained by calculating the arithmetic mean of the individual values of CHS and PFS. Several tests were assessed for endurance and speed Scores; details are reported in the extended methods.\nFor aged tissues: 10 μm-thick tissue sections were prepared from nine organs (liver, heart, lung, kidney, quadriceps, gastrocnemius, brain cortex, cerebellum, and hippocampus) and ear biopsies with a cryostat from snap-frozen tissues and mounted on SuperFrost Plus slides (VWR, Radnor, PA, USA). SA-β-gal staining was performed according to the manufacturer's instructions of the Sigma-Aldrich-QIA117 staining kit (Sigma-Aldrich, St. Louis, MO, USA). Nuclei were counterstained with Nuclear Fast Red (NFR) (Sigma-Aldrich, St. Louis, MO, USA), and images (from […] sections) were acquired using a Zeiss AxioCam HRc mounted on a Leitz Laborlux S light microscope. The percentage of senescent cells was determined as the mean of 3–4 images from each tissue section by counting the total and SA-β-gal-positive cells with the positive cell detection tool available in the open-source software for digital image analysis, QuPath v. 0.3.2 (Bankhead et al. 2017).\nIn the extended study, more geriatric C57BL/6J mice were used to confirm safety and investigate the main organs targeted by K5 (Fig. S5). For this purpose, 26 geriatric mice (14 males, 12 females, aged 31 months) and 24 geriatric mice (13 males, 11 females, and 31 months) were treated with K5 and the Vehicle. […]"}, "[1]": {"conditions": "geriatric C57BL/6J mice, vs control"}}, "data": [{"smiles": "Cc1ccccc1-n1c(=O)n(Cc2ccccc2)c(=O)c2[nH]cnc21", "note": "[Compound K5, 1-benzyl-3-(2-methylphenyl)-7H-purine-2,6-dione]", "values": [{"measurement": "median lifespan of treated animals, females", "setting": "p16-3MR mice; 10 mg/kg i.p., p16-3MR mice", "result": "953 ± 35", "unit": "days"}, {"measurement": "median lifespan of treated animals, males", "setting": "p16-3MR mice; 10 mg/kg i.p., p16-3MR mice", "result": "1097 ± 78", "unit": "days"}, {"measurement": "adverse reactions, behavioral stereotypes, mortality after administration", "setting": "p16-3MR mice; 10 mg/kg i.p., three injections over three consecutive days", "result": "did not induce any adverse reactions"}, {"measurement": "SA-β-gal activity in ear biopsies", "setting": "p16-3MR mice; T1, 10 mg/kg i.p.", "result": "reduction"}, {"measurement": "circulating IL-1β", "setting": "p16-3MR mice; T1 vs T0, 10 mg/kg i.p.", "result": "trend (p < 0.01) toward decreased"}, {"measurement": "circulating IL-6", "setting": "p16-3MR mice; T1 vs T0, 10 mg/kg i.p.", "result": "reduction"}, {"measurement": "p16 expression by in vivo bioluminescence, ventral and dorsal signals", "setting": "p16-3MR mice; T1 vs T0, 10 mg/kg i.p.", "result": "significant reduction"}, {"measurement": "p21 mRNA expression in ear biopsies", "setting": "p16-3MR mice; T1 vs T0, 10 mg/kg i.p.", "result": "decreasing trend"}, {"measurement": "p53 mRNA expression in ear biopsies", "setting": "p16-3MR mice; T1 vs T0, 10 mg/kg i.p.", "result": "reduction in p53 expression at T1 was statistically significant"}, {"measurement": "body weight", "setting": "C57BL/6J mice; geriatric C57BL/6J mice, throughout the treatment period", "result": "remained stable"}, {"measurement": "plasma levels of glucose, creatinine, GOT, and GPT, treated vs control", "setting": "C57BL/6J mice; geriatric C57BL/6J mice, two rounds of three injections", "result": "no significant differences"}, {"measurement": "SA-β-gal staining in the liver", "setting": "C57BL/6J mice; [1]", "result": "significantly reduced staining"}, {"measurement": "SA-β-gal staining in the pancreas", "setting": "C57BL/6J mice; [1]", "result": "significantly reduced staining"}, {"measurement": "circulating IL-1β", "setting": "C57BL/6J mice; geriatric C57BL/6J mice, vs controls", "result": "significant reduction"}, {"measurement": "Physical Function Score vs control", "setting": "C57BL/6J mice; treated male mice", "result": "significant increase"}, {"measurement": "Vitality Score vs control", "setting": "C57BL/6J mice; treated male mice", "result": "significant increase"}, {"measurement": "tumor incidence at gross necropsy", "setting": "C57BL/6J mice; treated male mice", "result": "lower incidence of tumors"}]}]}
